Test results: patent US20240208961A1, “EIF4E INHIBITORS AND USES THEREOF” (PIC Therapeutics, Inc., priority 2022, published 2024)
Several values for one entry are separate records, joined by “and”; a condition that tells them apart may be missing. Equal entries are not always repeated. Where two headings read alike, the source gives them in different places.

Test: Pharmacokinetic studies of certain compounds in female Balb/c mice (Example 5)
Format: in vivo
Conditions: for concentration at 0.5 hr / concentration at 1 hr / concentration at 2 hr / concentration at 4 hr: BALB/c
Protocol: Pharmacokinetic studies were performed using Balb/c mice, 15-20 g, 6-9 weeks, female, N=9, purchased from Jihui Laboratory Animal Co. LTD. For compound I-29, Balb/c mice, 19-21 g, 9-11 weeks, female, N=9, were used. The mice were fasted overnight and fed at 4 h post dosing.
Animals were dosed via oral gavage (PO) or tail vein injection (IV) with compound. Sampling occurred at 0.083, 0.25, 0.5, 1, 2, 4, 8, and 24 h post dose (8 time points). The animals were restrained manually at the designated time points. Approx. […] of blood was taken from the animals via facial vein for semi-serial bleeding into tubes with K2EDTA. Blood samples were put on ice and centrifuged at 4° C. (2000 g, 5 min) to obtain plasma within 15 min after sample collection. Plasma samples were stored in dry ice temporarily and at approximately −70° C. until analysis.
For oral gavage, the compound was dosed as a suspension in 1% sodium carboxymethyl cellulose (CMC) and 0.2% Tween 80 in water. For 23.8 mg/kg and 30 mg/kg doses, 3 mg/mL was used; for 50 mg/kg doses, 5 mg/mL was used; and for 100 mg/kg doses, 10 mg/mL was used.
For IV administration, the compound was dosed as a solution in 5% DMSO, 5% Solutol HS15 and 90% saline. For 1 mg/kg and 1.48 mg/kg doses, 0.2 mg/mL was used.
Plasma samples were analyzed using LC-MS using a calibration curve of known concentrations.
The results of these studies are summarized in Tables 11-21 below and in FIGS. 2-8. […] BQL=below quantifiable limit for compound in female Balb/c mouse plasma samples. NA=not available. PK parameters were estimated by non-compartmental model using WinNonlin 8.2. If the adjusted rsq (linear regression coefficient of the concentration value on the terminal phase) was less than 0.9, T1/2 might not have been accurately estimated. F value was determined by the following equation: • If AUClast/AUCINF>80%:
F=(AUCINF-EX×DOSEIV)/(AUCINF-IV×DOSEEX)[…] • If AUClast/AUCINF<80% or AUCINF not available:
F=(AUClast-EX×DOSEIV)/(AUClast-IV×DOSEEX)*1000

[1] = mouse, plasma, I-2 PO 100 mg/kg

Plasma concentration Individual (I-2 PO 30 mg/kg, 0.083 hr, 30 mg/kg): 106 ng/mL and 211 ng/mL and 94.1 ng/mL
Plasma concentration Individual (I-2 PO 30 mg/kg, 0.25 hr, 30 mg/kg): 663 ng/mL and 622 ng/mL
Plasma concentration Individual (I-2 PO 30 mg/kg, 0.5 hr, 30 mg/kg): 1380 ng/mL and 1170 ng/mL
Plasma concentration Individual (I-2 PO 30 mg/kg, 1 hr, 30 mg/kg): 2110 ng/mL and 1590 ng/mL
Plasma concentration Individual (I-2 PO 30 mg/kg, 2 hr, 30 mg/kg): 2640 ng/mL and 2190 ng/mL
Plasma concentration Individual (I-2 PO 30 mg/kg, 4 hr, 30 mg/kg): 1600 ng/mL
Plasma concentration Individual (I-2 PO 30 mg/kg, 8 hr, 30 mg/kg): 233 ng/mL and 261 ng/mL
Plasma concentration Individual (I-2 PO 30 mg/kg, 24 hr, 30 mg/kg): 7.09 ng/mL and 5.63 ng/mL
Plasma concentration Individual (I-2 PO 100 mg/kg, 0.083 hr, 100 mg/kg): 406 ng/mL and 159 ng/mL and 182 ng/mL
Plasma concentration Individual (I-2 PO 100 mg/kg, 0.25 hr, 100 mg/kg): 1310 ng/mL and 2360 ng/mL and 885 ng/mL
Plasma concentration Individual (I-2 PO 100 mg/kg, 0.5 hr, 100 mg/kg): 3290 ng/mL and 2960 ng/mL
Plasma concentration Individual (I-2 PO 100 mg/kg, 1 hr, 100 mg/kg): 3010 ng/mL and 3120 ng/mL
Plasma concentration Individual (I-2 PO 100 mg/kg, 2 hr, 100 mg/kg): 4510 ng/mL and 3430 ng/mL
Plasma concentration Individual (I-2 PO 100 mg/kg, 4 hr, 100 mg/kg): 3380 ng/mL and 1660 ng/mL and 2310 ng/mL
Plasma concentration Individual (I-2 PO 100 mg/kg, 8 hr, 100 mg/kg): 914 ng/mL and 861 ng/mL
Plasma concentration Individual (I-2 PO 100 mg/kg, 24 hr, 100 mg/kg): 19.7 ng/mL and 18.8 ng/mL and 37.7 ng/mL
concentration at 0.5 hr (female, mouse, plasma, po, 30 mg/kg, I-2 PO 30 mg/kg, 0.5 hr, read-out: Plasma concentration Individual): 1160 ng/mL
concentration at 0.5 hr (female, mouse, plasma, po, 30 mg/kg, I-2 PO 30 mg/kg, 0.5 hr, read-out: Plasma concentration Mean): 1240 ng/mL
concentration at 1 hr (female, mouse, plasma, po, 30 mg/kg, I-2 PO 30 mg/kg, 1 hr, read-out: Plasma concentration Individual): 1700 ng/mL
concentration at 1 hr (female, mouse, plasma, po, 30 mg/kg, I-2 PO 30 mg/kg, 1 hr, read-out: Plasma concentration Mean): 1800 ng/mL
concentration at 2 hr (female, mouse, plasma, po, 30 mg/kg, I-2 PO 30 mg/kg, 2 hr, read-out: Plasma concentration Individual): 2150 ng/mL
concentration at 2 hr (female, mouse, plasma, po, 30 mg/kg, I-2 PO 30 mg/kg, 2 hr, read-out: Plasma concentration Mean): 2330 ng/mL
concentration at 4 hr (female, mouse, plasma, po, 30 mg/kg, I-2 PO 30 mg/kg, 4 hr, read-out: Plasma concentration Individual): 1340 ng/mL
concentration at 4 hr (female, mouse, plasma, po, 30 mg/kg, I-2 PO 30 mg/kg, 4 hr, read-out: Plasma concentration Mean): 1510 ng/mL
concentration at 0.083 h (female, Balb/c, mouse, plasma, po, 30 mg/kg, I-2 PO 30 mg/kg, 0.083 hr, read-out: Plasma concentration Mean): 137 ng/mL
concentration at 0.25 h (female, Balb/c, mouse, plasma, po, 30 mg/kg, I-2 PO 30 mg/kg, 0.25 hr, read-out: Plasma concentration Individual): 472 ng/mL
concentration at 0.25 h (female, Balb/c, mouse, plasma, po, 30 mg/kg, I-2 PO 30 mg/kg, 0.25 hr, read-out: Plasma concentration Mean): 586 ng/mL
concentration at 8 hr (female, Balb/c, mouse, plasma, po, 30 mg/kg, I-2 PO 30 mg/kg, 8 hr, read-out: Plasma concentration Individual): 244 ng/mL
concentration at 8 h (female, Balb/c, mouse, plasma, po, 30 mg/kg, I-2 PO 30 mg/kg, 8 hr, read-out: Plasma concentration Mean): 246 ng/mL
concentration at 24 h (female, Balb/c, mouse, plasma, po, 30 mg/kg, I-2 PO 30 mg/kg, 24 hr, read-out: Plasma concentration Individual): 4.28 ng/mL
concentration at 24 h (female, Balb/c, mouse, plasma, po, 30 mg/kg, I-2 PO 30 mg/kg, 24 hr, read-out: Plasma concentration Mean): 5.67 ng/mL
concentration at 0.083 h (female, Balb/c, mouse, plasma, po, 100 mg/kg, I-2 PO 100 mg/kg, 0.083 hr, read-out: Plasma concentration Mean): 249 ng/mL
concentration at 0.25 h (female, Balb/c, mouse, plasma, po, 100 mg/kg, I-2 PO 100 mg/kg, 0.25 hr, read-out: Plasma concentration Mean): 1520 ng/mL
concentration at 0.5 h (female, Balb/c, mouse, plasma, po, 100 mg/kg, I-2 PO 100 mg/kg, 0.5 hr, read-out: Plasma concentration Individual): 2800 ng/mL
concentration at 0.5 h (female, Balb/c, mouse, plasma, po, 100 mg/kg, I-2 PO 100 mg/kg, 0.5 hr, read-out: Plasma concentration Mean): 3020 ng/mL
concentration at 1 h (female, Balb/c, mouse, plasma, po, 100 mg/kg, I-2 PO 100 mg/kg, 1 hr, read-out: Plasma concentration Individual): 4550 ng/mL
concentration at 1 h (female, Balb/c, mouse, plasma, po, 100 mg/kg, I-2 PO 100 mg/kg, 1 hr, read-out: Plasma concentration Mean): 3560 ng/mL
concentration at 2 h (female, Balb/c, mouse, plasma, po, 100 mg/kg, I-2 PO 100 mg/kg, 2 hr, read-out: Plasma concentration Individual): 3810 ng/mL
concentration at 2 h (female, Balb/c, mouse, plasma, po, 100 mg/kg, I-2 PO 100 mg/kg, 2 hr, read-out: Plasma concentration Mean): 3920 ng/mL
concentration at 4 h (female, Balb/c, mouse, plasma, po, 100 mg/kg, I-2 PO 100 mg/kg, 4 hr, read-out: Plasma concentration Mean): 2450 ng/mL
concentration at 8 h (female, Balb/c, mouse, plasma, po, 100 mg/kg, I-2 PO 100 mg/kg, 8 hr, read-out: Plasma concentration Individual): 1080 ng/mL
concentration at 8 h (female, Balb/c, mouse, plasma, po, 100 mg/kg, I-2 PO 100 mg/kg, 8 hr, read-out: Plasma concentration Mean): 952 ng/mL
concentration at 24 h (female, Balb/c, mouse, plasma, po, 100 mg/kg, I-2 PO 100 mg/kg, 24 hr, read-out: Plasma concentration Mean): 25.4 ng/mL
AUC(0-inf) (mouse, plasma, I-2 PO 30 mg/kg): 12500 ng·h/mL
AUC(0-t) (mouse, plasma, I-2 PO 30 mg/kg): 12500 ng·h/mL
Cmax (mouse, plasma, I-2 PO 30 mg/kg): 2330 ng/mL
MRT inf (mouse, plasma, I-2 PO 30 mg/kg): 3.85 h
MRT last (mouse, plasma, I-2 PO 30 mg/kg): 3.81 h
Tmax (mouse, plasma, I-2 PO 30 mg/kg): 2 h
half-life (mouse, plasma, I-2 PO 30 mg/kg): 2.6 h
AUC(0-inf) [1]: 27200 ng·h/mL
AUC(0-t) [1]: 27100 ng·h/mL
Cmax [1]: 3920 ng/mL
MRT inf [1]: 4.73 h
MRT last [1]: 4.63 h
Tmax [1]: 2 h
half-life [1]: 3.04 h
SMILES: CC(C)Cc1sc(Nc2ncc(-c3cccs3)cc2C(=O)O)nc1C1=CCCCC1 [Compound I-2]
